Measurements reported in patent US20070105898A1, “Process for the production of cilostazol” (Apotex Pharmachem Inc., priority 2005, published 2007).

Experiment: Particle size distribution of precipitated cilostazol particles
Format: physicochemical
Details: filtered, dried
Description: A hot solution (70-75° C.) of cilostazol (23 g) in 1-methyl-2-pyrrolidinone (69 mL) was slowly added over a period of 5-10 min into water (345 mL) at 0-5° C. with stirring. The suspension was stirred at 0-5° C. for 1-2 hrs, filtered and rinsed with water (40 mL) and methanol (20 mL). The solid was dried under vacuum at 55-60° C. to give 22.1 g (yield 96%) cilostazol as a white powder. Particle size distribution: d(0.1)=0.71 micrometres, d(0.5)=5.94 mircrometres, d(0.9)=30.59 micrometres.
A hot solution (70-75° C.) of cilostazol (20 g) in 1-methyl-2-pyrrolidinone (40 mL) was slowly added over a period of 5-10 min into toluene (250 mL) at 0-5° C. with stirring. The suspension was stirred at 0-5° C. for 1-2 hrs, filtered and rinsed with toluene (100 mL). The solid was dried under vacuum at 55-60° C. to give 18.2 g (yield 91%) cilostazol as a white powder. Particle size distribution: d(0.1)=0.80 micrometres, d(0.5)=3.90 mircrometres, d(0.9)=25.56 micrometres.

[1] = Example 2: hot 1-methyl-2-pyrrolidinone solution added into water at 0-5° C.
[2] = Example 3: hot 1-methyl-2-pyrrolidinone solution added into toluene at 0-5° C.

SMILES: O=C1CCc2cc(OCCCCc3nnnn3C3CCCCC3)ccc2N1 [cilostazol, 6-[4-(1-cyclohexyl-1H-tetrazol-5-yl)butoxy]-3,4-dihydro-2(1H)-quinolinone]
- Particle size distribution d(0.1) [1]: 0.71 micrometres
- Particle size distribution d(0.5) [1]: 5.94 mircrometres
- Particle size distribution d(0.9) [1]: 30.59 micrometres
- Particle size distribution d(0.1) [2]: 0.80 micrometres
- Particle size distribution d(0.5) [2]: 3.90 mircrometres
- Particle size distribution d(0.9) [2]: 25.56 micrometres
